Reference: the supplement of paper PMC10307832

Assays:
Experiment in all cases: relative viability (nuclei count vs DMSO), 5 days (fraction); higher = more cells survive
FG-4592 + Bortezomib = compound: Cc1nc(C(=O)NCC(=O)O)c(O)c2ccc(Oc3ccccc3)cc12 [FG-4592] + CC(C)C[C@H](NC(=O)[C@H](Cc1ccccc1)NC(=O)c1cnccn1)B(O)O [Bortezomib] (partner 0.002 µM)
In short: (§1)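 Dosing by pin tool came one day after lung cancer cell lines were seeded in 1536-well plates, using either one drug or a fixed anchor-drug dose plus five library-drug doses (not always all listed) in √10 steps. After 5 days, nuclei were counted on 4× images. Relative viability is treated-well nuclei count divided by vehicle-well nuclei count, and values are medians of duplicate plates.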

FG-4592 + Palbociclib = compound: Cc1nc(C(=O)NCC(=O)O)c(O)c2ccc(Oc3ccccc3)cc12 [FG-4592] + CC(=O)c1c(C)c2cnc(Nc3ccc(N4CCNCC4)cn3)nc2n(C2CCCC2)c1=O [Palbociclib] (partner 0.5 µM)
In short: as §1

FG-4592 + AZD7762 = compound: Cc1nc(C(=O)NCC(=O)O)c(O)c2ccc(Oc3ccccc3)cc12 [FG-4592] + NC(=O)Nc1cc(-c2cccc(F)c2)sc1C(=O)N[C@H]1CCCNC1 [AZD7762] (partner 0.2 µM)
In short: as §1

IU1-47 + Alpelisib = compound: CC1=CC(=C(N1C2=CC=C(C=C2)Cl)C)C(=O)CN3CCCCC3 [IU1-47] + Cc1nc(NC(=O)N2CCC[C@H]2C(N)=O)sc1-c1ccnc(C(C)(C)C(F)(F)F)c1 [Alpelisib] (partner 2 µM)
In short: as §1

Row | Cell Line | relative viability (FG-4592 + Bortezomib; first compound 0.08 µM) | relative viability (FG-4592 + Bortezomib; first compound 0.253 µM) | relative viability (FG-4592 + Bortezomib; first compound 0.8 µM) | relative viability (FG-4592 + Bortezomib; first compound 2.53 µM) | relative viability (FG-4592 + Bortezomib; first compound 8 µM) | relative viability (FG-4592 + Palbociclib; first compound 0.08 µM) | relative viability (FG-4592 + Palbociclib; first compound 0.253 µM) | relative viability (FG-4592 + Palbociclib; first compound 0.8 µM) | relative viability (FG-4592 + Palbociclib; first compound 2.53 µM) | relative viability (FG-4592 + Palbociclib; first compound 8 µM) | relative viability (FG-4592 + AZD7762; first compound 0.08 µM) | relative viability (FG-4592 + AZD7762; first compound 0.253 µM) | relative viability (FG-4592 + AZD7762; first compound 0.8 µM) | relative viability (FG-4592 + AZD7762; first compound 2.53 µM) | relative viability (FG-4592 + AZD7762; first compound 8 µM) | relative viability (IU1-47 + Alpelisib; first compound 0.08 µM) | relative viability (IU1-47 + Alpelisib; first compound 0.253 µM) | relative viability (IU1-47 + Alpelisib; first compound 0.8 µM) | relative viability (IU1-47 + Alpelisib; first compound 2.53 µM) | relative viability (IU1-47 + Alpelisib; first compound 8 µM)
1 | HOP-62 | 0.602 | 0.816 | 0.628 | 0.754 | 0.985 | 0.393 | 0.439 | 0.365 | 0.407 | 0.37 | 0.501 | 0.509 | 0.476 | 0.472 | 0.529 | 1.16 | 1.21 | 1.05 | 1.11 | 1.01
2 | NCI-H2085 | 0.998 | 1.02 | 1.01 | 0.963 | 1.06 | 0.507 | 0.432 | 0.5 | 0.46 | 0.469 | 0.983 | 0.956 | 0.905 | 0.992 | 0.893 | 1.04 | 0.973 | 1.02 | 0.975 | 0.856
